The test deals with human A2AR (Homo sapiens, UniProt P29274). Kind of test: radioligand displacement, [3H]ZM241385. In kind it is binding. To be noted: […] [3H]ZMA; […] Tris/HCl pH […]; […] min; CHO K1 membranes.

In general, Ki refers to the equilibrium dissociation constant of an inhibitor or competing ligand from its target. A low value points to higher affinity.

The structures appear in SMILES notation.

human A2AR, sequence (P29274 whole entry): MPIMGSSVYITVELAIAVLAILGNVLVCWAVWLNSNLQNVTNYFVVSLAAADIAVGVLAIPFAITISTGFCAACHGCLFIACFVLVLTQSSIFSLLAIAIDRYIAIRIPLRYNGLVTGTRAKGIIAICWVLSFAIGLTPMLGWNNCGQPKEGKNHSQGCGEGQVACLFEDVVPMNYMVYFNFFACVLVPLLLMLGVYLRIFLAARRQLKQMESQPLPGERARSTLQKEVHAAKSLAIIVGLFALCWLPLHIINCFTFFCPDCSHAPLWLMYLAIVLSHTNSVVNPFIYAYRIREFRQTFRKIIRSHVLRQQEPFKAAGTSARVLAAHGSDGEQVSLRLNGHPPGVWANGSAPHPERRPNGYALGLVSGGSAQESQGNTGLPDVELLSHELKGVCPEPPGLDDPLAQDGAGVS

`N#Cc1c(NC(=O)Cn2c(=O)oc3ccccc32)oc(-c2ccccc2)c1-c1ccccc1` [JG-10] yielded a Ki of 310 ± 23.4 nM.

These data come from article doi:10.1101/2023.03.31.535043v1 (biorxiv, 2023).
